For one experiment, the system named is NCI-H292. Description: Cytotoxic effects, MTT assay. The class given is cell-based. The following applies: Homo sapiens, 72 h incubation. The procedure:
The cells are cultivated by a standard method, as indicated in the […] (ATCC) for the respective cell lines.
At the end of the selected incubation time, the MTT reagent is incubated with the cells for 4 h, followed by lysis of the cells overnight by addition of the detergent. […] The proliferation of cells which were not treated with test substance but were otherwise identically treated was defined as the 100% figure.

Experiment [1] concerns the target T1, human kinesin spindle protein KSP/Eg5 (Homo sapiens, UniProt P52732).
T1 construct: The motor domain of the human kinesin spindle protein KSP/Eg5; purchased tebu-bio/Cytoskeleton Inc 027EG01-XL
T1 sequence (P52732 18-359 limits assumed): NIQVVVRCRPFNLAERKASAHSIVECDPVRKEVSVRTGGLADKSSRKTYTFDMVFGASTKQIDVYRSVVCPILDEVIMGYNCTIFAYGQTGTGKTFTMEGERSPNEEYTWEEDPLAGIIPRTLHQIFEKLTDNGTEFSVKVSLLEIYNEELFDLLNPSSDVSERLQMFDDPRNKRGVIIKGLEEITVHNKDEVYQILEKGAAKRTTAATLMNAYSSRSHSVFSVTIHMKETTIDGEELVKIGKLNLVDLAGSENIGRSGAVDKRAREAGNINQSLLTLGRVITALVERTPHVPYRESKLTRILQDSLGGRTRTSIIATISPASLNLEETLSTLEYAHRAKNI
Description: Inhibition of the kinesin spindle protein KSP/Eg5 (ATPase, malachite green). The class given is biochemical. The following applies: 10 nM KSP motor domain, 500 μM ATP, 2 h RT. The procedure, abridged: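 KSP/Eg5 motor domain (10 nM) preincubated 5 min at RT with 50 μg/ml taxol-stabilized bovine or porcine microtubules in 15 mM PIPES pH 6.8, 5 mM MgCl2, 10 mM DTT. IC50 = mean of three experiments.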

Bounds are passed on as bounds.

This is an account of results in patent publication US10022453B2 (BAYER PHARMA AKTIENGESELLSCHAFT, priority 2013, dated 2018).

As to `CSCC(=O)N(CCCN)[C@@H](c1cc(-c2cc(F)ccc2F)cn1Cc1ccccc1)C(C)(C)C` [Example 222, Trifluoroacetic acid/N-(3-aminopropyl)-N-{(1R)-1-[1-benzyl-4-(2,5-difluorophenyl)-1H-pyrrol-2-yl]-2,2-dimethylpropyl}-2-(methylsulphanyl)acetamide (1:1)], the IC50 (as a rule, the concentration that gives 50% inhibition) in the experiment on NCI-H292 amounted to 3.3 nM; in experiment [1], 1.58 nM.

`CC(=O)N(CCCN)[C@@H](c1nn(-c2cc(F)ccc2F)cc1Cc1ccccc1)C(C)(C)C` [Example 181, N-(3-Aminopropyl)-N-{(1R)-1-[4-benzyl-1-(2,5-difluorophenyl)-1H-pyrazol-3-yl]-2,2-dimethylpropyl}acetamide]: the IC50 with NCI-H292 was 7.72 nM; in experiment [1], 7.9 nM.

With `COCC(=O)N(CCCN)[C@@H](c1nn(-c2cc(F)ccc2F)cc1Cc1ccccc1)C(C)(C)C` [Example 182, N-(3-aminopropyl)-N-{(1R)-1-[4-benzyl-1-(2,5-difluorophenyl)-1H-pyrazol-3-yl]-2,2-dimethylpropyl}-2-methoxyacetamide], the IC50 with NCI-H292 turned out to be 1.2 nM; in experiment [1] it was 10.4 nM.

With `CC(C)(C)[C@H](c1cc(-c2cc(F)ccc2F)cn1Cc1ccccc1)N(CCCN)C(=O)c1ccc(F)cc1` [Example 187, N-(3-aminopropyl)-N-{(1R)-1-[1-benzyl-4-(2,5-difluorophenyl)-1H-pyrrol-2-yl]-2,2-dimethylpropyl}-4-fluorobenzamide], the values for the IC50 (in the experiment on NCI-H292; in experiment [1]) were 1.98 nM and 14.1 nM, respectively.

Take `CC(=O)N(CCCN)[C@@H](c1cc(-c2cc(F)ccc2F)cn1Cc1ccccc1)C(C)(C)C` [Example 188, N-(3-aminopropyl)-N-{(1R)1-[1-benzyl-4-(2,5-difluorophenyl)-1H-pyrrol-2-yl]-2,2-dimethylpropyl}acetamide]: the 50% inhibitory concentration (IC50) in the experiment on NCI-H292 was determined as 0.928 nM; in experiment [1], 10.1 nM.

For `CC(C)(C)[C@H](c1cc(-c2cc(F)ccc2F)cn1Cc1ccccc1)N(CCCN)C(=O)c1ccc(N)cc1` [Example 233, Trifluoroactic acid/4-amino-N-(3-aminopropyl)-N-{(1R)-1-[1-benzyl-4-(2,5-difluorophenyl)-1H-pyrrol-2-yl]-2,2-dimethylpropyl}benzamide (2:1)], the concentration for half-maximal inhibition (IC50) in the experiment with NCI-H292 amounted to 0.963 nM; in experiment [1] it was 3.88 nM.

`CC(C)(C)[C@H](c1nn(-c2cc(F)ccc2F)cc1Cc1ccccc1)N(CCCN)C(=O)c1ccc(F)cc1F` [Example 183, N-(3-aminopropyl)-N-{(1R)-1-[4-benzyl-1-(2,5-difluorophenyl)-1H-pyrazol-3-yl]-2,2-dimethylpropyl}-2,4-difluorobenzamide]: the values for the IC50 (with NCI-H292; in experiment [1]) were 32.9 nM and 6.21 nM, respectively.

Regarding `CC(C)(C)[C@H](c1nn(-c2cc(F)ccc2F)cc1Cc1ccccc1)N(CCCN)C(=O)c1ccc(N)cc1` [Example 227, Trifluoroacetic acid/4-amino-N-(3-aminopropyl)-N-{(1R)-1-[4-benzyl-1-(2,5-difluorophenyl)-1H-pyrazol-3-yl]-2,2-dimethylpropyl}benzamide (2:1)], the concentration for half-maximal inhibition (IC50) in the experiment on NCI-H292 worked out at 1.82 nM; in experiment [1], 1.78 nM.

Turning to `CC(C)(C)[C@H](c1cc(-c2cc(F)ccc2F)cn1Cc1ccccc1)N(CCCN)C(=O)c1ccc(F)cc1F` [Example 190], the IC50 worked out at 5.42 nM in the experiment with NCI-H292 and 9.61 nM in experiment [1].

For the molecule `CC(C)(C)[C@H](c1cc(-c2cc(F)ccc2F)cn1Cc1ccccc1)N(CC[C@H](N)C(=O)NCCC(=O)O)C(=O)CO` [Example 200, N-{(2S)-2-Amino-4-[{(1R)-1-[1-benzyl-4-(2,5-difluorophenyl)-1H-pyrrol-2-yl]-2,2-dimethylpropyl}(glycoloyl)amino]butanoyl}-beta-alanine/trifluoroacetic acid (1:1)], the 50% inhibitory concentration (IC50) with NCI-H292 was 140 nM; in experiment [1], 0.108 nM.

With `CSc1ccc(C(=O)N(CCCN)[C@@H](c2cc(-c3cc(F)ccc3F)cn2Cc2ccccc2)C(C)(C)C)cc1` [Example 220, Trifluoroacetic acid/N-(3-aminopropyl)-N-{(1R)-1-[1-benzyl-4-(2,5-difluorophenyl)-1H-pyrrol-2-yl]-2,2-dimethylpropyl}-4-(methylsulphanyl)benzamide (1:1)], the values for the IC50 (with NCI-H292; in experiment [1]) were 0.197 nM and 1.45 nM, respectively.

In the case of `Cc1ccc(C(=O)N(CCCN)[C@@H](c2cc(-c3cc(F)ccc3F)cn2Cc2ccccc2)C(C)(C)C)cc1` [Example 219, Trifluoroacetic acid/N-(3-aminopropyl)-N-{(1R)-1-[1-benzyl-4-(2,5-difluorophenyl)-1H-pyrrol-2-yl]-2,2-dimethylpropyl}-4-methylbenzamide (1:1)], the IC50 with NCI-H292 is 3.48 nM; in experiment [1], 1.13 nM.

For the molecule `CC(C)(C)[C@H](c1cc(-c2cc(F)ccc2F)cn1Cc1ccccc1)N(CCCN)C(=O)CCC(=O)O` [Example 225, 4-[(3-Aminopropyl) {(1R)-1-[1-benzyl-4-(2,5-difluorophenyl)-1H-pyrrol-2-yl]-2,2-dimethylpropyl}amino]-4-oxobutanoic acid/trifluoroacetic acid (1:1)], the IC50 is 1.51 nM with NCI-H292 and 0.425 nM in experiment [1].

On to `Cc1ccc(C(=O)N(CCCN)[C@@H](c2nn(-c3cc(F)ccc3F)cc2Cc2ccccc2)C(C)(C)C)cc1` [Example 184, N-(3-aminopropyl)-N-{(1R)-1-[4-benzyl-1-(2,5-difluorophenyl)-1H-pyrazol-3-yl]-2,2-dimethylpropyl}-4 methylbenzamide], for which the IC50 in the experiment with NCI-H292 is 27.8 nM; in experiment [1], 14.3 nM.

Regarding `CC(=O)N[C@@H](CSCC(=O)N(CCCN)[C@@H](c1cc(-c2cc(F)ccc2F)cn1Cc1ccccc1)C(C)(C)C)C(=O)O` [Example 228, N-Acetyl-S-{2-[(3-aminopropyl){(1R)-1-[1-benzyl-4-(2,5-difluorophenyl)-1H-pyrrol-2-yl]-2,2-dimethylpropyl}amino]-2-oxoethyl}-L-cysteine/trifluoroacetic acid (1:1)], the IC50 stood at 5.36 nM in the experiment on NCI-H292 and 3.07 nM in experiment [1].

Take `CC(C)(C)[C@H](c1cc(-c2cc(F)ccc2F)cn1Cc1ccccc1)N(CCCN)C(=O)CO` [Example 98, N-(3-aminopropyl)-N-{(1R)-1-[1-benzyl-4-(2,5-difluorophenyl)-1H-pyrrol-2-yl]-2,2-dimethylpropyl}-2-hydroxyacetamide]: the IC50 with NCI-H292 is 1.65 nM; in experiment [1] it was 1.8 nM.

On to `CC(C)(C)[C@H](c1cc(-c2cc(F)ccc2F)cn1Cc1ccccc1)N(CCCN)C(=O)CC(F)(F)F` [Example 186, N-(3-Aminopropyl)-N-{(1R)-1-[1-benzyl-4-(2,5-difluorophenyl)-1H-pyrrol-2-yl]-2,2-dimethylpropyl}-3,3,3-trifluoropropanamide], for which the IC50 with NCI-H292 amounted to 9.29 nM; in experiment [1] it was 25.3 nM.

With `CC(C)(C)[C@H](c1cc(-c2cc(F)ccc2F)cn1Cc1ccccc1)N(CCCN)C(=O)[C@@H]1CCCO1` [Example 230, Trifluoroacetic acid/(2S)—N-(3-aminopropyl)-N-{(1R)-1-[1-benzyl-4-(2,5-difluorophenyl)-1H-pyrrol-2-yl]-2,2-dimethylpropyl}tetrahydrofuran-2-carboxamide (1:1)], the values for the IC50 (in the experiment with NCI-H292; in experiment [1]) were 0.0121 nM and 3.41 nM, respectively.

Turning to `CC(C)(C)[C@H](c1cc(-c2cc(F)ccc2F)cn1Cc1ccccc1)N(CC[C@H](N)C(=O)NCCCCCCN1C(=O)CC(SC[C@H](N)C(=O)O)C1=O)C(=O)CO` (stereo partly drawn) [Example 249, S-{1-[6-({(2S)-2-Amino-4-[{(1R)-1-[1-benzyl-4-(2,5-difluorophenyl)-1H-pyrrol-2-yl]-2,2-dimethylpropyl}(glycoloyl)amino]butanoyl}amino)hexyl]-2,5-dioxopyrrolidin-3-yl}-L-cysteine/trifluoroacetic acid (1:1)], the IC50 in the experiment on NCI-H292 is 26.6 nM; in experiment [1], 0.915 nM.

As to `C[C@H](NC(=O)[C@@H](N)CCN(C(=O)CO)[C@@H](c1cc(-c2cc(F)ccc2F)cn1Cc1ccccc1)C(C)(C)C)C(=O)O` [Example 202, N-{(2S)-2-Amino-4-{[(1R)-1-[1-benzyl-4-(2,5-difluorophenyl)-1H-pyrrol-2-yl]-2,2-dimethylpropyl}(glycoloyl)amino]butanoyl}-L-alanine/trifluoroacetic acid (1:1)], the figures for the IC50 (in the experiment on NCI-H292; in experiment [1]) were 422 nM and 0.256 nM, respectively.

On to `CC(=O)N[C@@H](CSCC(=O)N(CCCNC(=O)[C@H](C)N)[C@@H](c1cc(-c2cc(F)ccc2F)cn1Cc1ccccc1)C(C)(C)C)C(=O)O` [Example 229, N-acetyl-S-[2-([3-(L-alanylamino)propyl]{(1R)-1-[1-benzyl-4-(2,5-difluorophenyl)-1H-pyrrol-2-yl]-2,2-dimethylpropyl}amino)-2-oxoethyl]-L-cysteine/trifluoroacetic acid (1:1)], for which the IC50 in the experiment on NCI-H292 is at least 500 nM; in experiment [1], 4.44 nM.

Consider `CCOCC(=O)N(CCCN)[C@@H](c1nn(-c2cc(F)ccc2F)cc1Cc1ccccc1)C(C)(C)C` [Example 185, N-(3-aminopropyl)-N-{(1R)-1-[4-benzyl-1-(2,5-difluorophenyl)-1H-pyrazol-3-yl]-2,2-dimethylpropyl}-2-ethoxyacetamide], for which the results for the IC50 (in the experiment on NCI-H292; in experiment [1]) were 12 nM and 18 nM, respectively.
